Laboratory results from patent US8633183B2 (priority 2010, dated 2014).

Target: PI3Kalpha (Homo sapiens (Human), UniProt P42336)
Conditions: read-out: IC50 PI3K

PI3Kalpha, sequence (P42336 whole entry, looked up): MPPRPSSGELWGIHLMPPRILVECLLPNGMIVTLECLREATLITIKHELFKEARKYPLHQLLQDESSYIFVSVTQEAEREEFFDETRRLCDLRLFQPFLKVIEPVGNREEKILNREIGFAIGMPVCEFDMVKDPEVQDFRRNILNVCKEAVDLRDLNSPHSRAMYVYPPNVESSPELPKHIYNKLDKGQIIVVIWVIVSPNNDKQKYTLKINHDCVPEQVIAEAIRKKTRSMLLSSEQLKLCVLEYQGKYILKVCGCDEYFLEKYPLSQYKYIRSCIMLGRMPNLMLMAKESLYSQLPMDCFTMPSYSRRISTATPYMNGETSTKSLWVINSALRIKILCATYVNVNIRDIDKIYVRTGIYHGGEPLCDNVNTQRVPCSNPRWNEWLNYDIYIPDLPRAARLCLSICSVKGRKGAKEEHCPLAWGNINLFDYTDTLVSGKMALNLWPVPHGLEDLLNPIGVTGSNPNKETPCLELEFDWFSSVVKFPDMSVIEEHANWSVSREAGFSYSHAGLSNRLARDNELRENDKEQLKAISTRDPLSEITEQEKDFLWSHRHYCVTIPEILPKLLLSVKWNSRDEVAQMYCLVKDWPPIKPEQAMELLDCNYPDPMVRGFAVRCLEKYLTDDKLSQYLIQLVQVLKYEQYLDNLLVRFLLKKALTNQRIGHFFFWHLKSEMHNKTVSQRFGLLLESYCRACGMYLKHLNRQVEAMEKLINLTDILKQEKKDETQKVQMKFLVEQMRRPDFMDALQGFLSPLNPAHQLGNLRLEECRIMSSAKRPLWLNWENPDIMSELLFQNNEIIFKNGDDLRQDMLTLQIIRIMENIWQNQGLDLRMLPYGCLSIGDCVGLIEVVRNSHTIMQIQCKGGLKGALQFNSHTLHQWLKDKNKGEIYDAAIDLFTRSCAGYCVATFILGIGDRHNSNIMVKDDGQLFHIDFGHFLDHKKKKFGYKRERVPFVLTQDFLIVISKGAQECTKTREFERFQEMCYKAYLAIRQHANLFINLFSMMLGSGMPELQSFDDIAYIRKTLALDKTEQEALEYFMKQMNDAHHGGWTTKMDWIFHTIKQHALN

Structure (SMILES) | IC50 [nM]
CCc1ncnc(-c2ccc(C(=O)N3CCN(S(=O)(=O)CC)CC3)c(F)c2)c1C#Cc1ccc(N)nc1C [Example D-19] | 92
CCc1ncnc(-c2ccc(C(=O)N3CCNCC3)c(Cl)c2)c1C#Cc1ccc(N)nc1 [Example E-34] | 164
Cc1ncnc(-c2ccc(C(=O)N3CCN(C4CCOCC4)CC3)cc2)c1C#Cc1ccc(N)nc1 [Example D-193] | 65
CCc1ncnc(-c2ccc(C(=O)N3CC[C@H](O)C3)c(Cl)c2)c1C#Cc1ccc(N)nc1 [Example E-27] | 58.3
CCc1ncnc(-c2ccc(C(=O)N(C)OC)c(Cl)c2)c1C#Cc1ccc(N)nc1 [Example E-79] | 50
CCc1ncnc(-c2ccc(C(=O)N3CC[C@@H](N(C)C)C3)c(Cl)c2)c1C#Cc1ccc(NC)nc1 [Example E-188] | 356
CCc1ncnc(-c2ccc(C(=O)N3CCN(CC(C)O)CC3)c(Cl)c2)c1C#Cc1ccc(N)nc1 (stereo not shown) [Example E-317] | 92.8
CCc1ncnc(-c2ccc(C(=O)N3CCN(Cc4nc(C)c(C)o4)CC3)c(Cl)c2)c1C#Cc1ccc(N)nc1 [Example E-315] | 127
CCc1ncnc(-c2ccc(C(=O)N3CCOCC3)c(C)c2)c1C#Cc1ccc(N)nc1 [Example E-92] | 59.5
CCc1ncnc(-c2ccc(C(=O)N3CCN(CC)CC3)c(OC)c2)c1C#Cc1ccc(N)nc1 [Example D-53] | 213
CCc1ncnc(-c2cc(F)c(C(=O)N3CCN(C(C)C)CC3)c(F)c2)c1C#Cc1ccc(N)nc1 [Example E-2] | 237
CCc1ncnc(-c2ccc(C(=O)N3CCN(C4CCOCC4)CC3)c(C)c2)c1C#Cc1ccc(N)nc1 [Example E-88] | 84.4
CCc1ncnc(-c2ccc(C(=O)NCC3CCNCC3)c(F)c2)c1C#Cc1ccc(N)nc1 [Example E-168] | 373
CCc1ncnc(-c2ccc(C(=O)N3CCN(CC(F)F)CC3)c(Cl)c2)c1C#Cc1ccc(N)nc1 [Example D-41] | 177
CCc1ncnc(-c2ccc(C(=O)N3CCN4CCC[C@@H]4C3)c(Cl)c2)c1C#Cc1ccc(N)nc1 [Example E-139] | 160
CCc1ncnc(-c2ccc(C(=O)N3CC[S+]([O-])CC3)c(C)c2)c1C#Cc1ccc(N)nc1 [Example E-121] | 63.9
CCc1ncnc(-c2ccc(C(=O)N3CCC(O)(C(C)C)CC3)c(F)c2)c1C#Cc1ccc(N)nc1 [Example D-124] | 228
CCc1ncnc(-c2ccc(C(=O)NC3CCCN(C)C3)c(Cl)c2)c1C#Cc1ccc(N)nc1 (stereo not shown) [Example E-22] | 510
CCNc1ccc(C#Cc2c(CC)ncnc2-c2ccc(C(=O)N3CCn4ccnc4C3)c(F)c2)cn1 [Example E-260] | 63.8
CCc1ncnc(-c2ccc(C(=O)N3CCn4ccnc4C3)c(F)c2)c1C#Cc1ccc(N)nc1 [Example E-249] | 60.5
CCc1ncnc(-c2ccc(C(=O)N3CCC4(CC3)COC4)c(F)c2)c1C#Cc1ccc(N)nc1 [Example E-164] | 154
CCc1ncnc(-c2cc(F)c(C(=O)N3CCC4(CC3)CNC4)c(Cl)c2)c1C#Cc1ccc(N)nc1 [Example E-162] | 540
CCc1ncnc(-c2ccc(C(=O)N3CCN(CC(F)(F)F)CC3)c(OC)c2)c1C#Cc1ccc(N)nc1 [Example D-54] | 81
CCc1ncnc(-c2ccc(C(=O)N(C)C)cc2)c1C#Cc1ccc(C)nc1 [Example C-18] | 137
CCc1ncnc(-c2ccc(C(=O)N3CCCC(N(C)C)C3)c(Cl)c2)c1C#Cc1ccc(N)nc1 (stereo not shown) [Example E-75] | 275

Structure (SMILES) | IC50 [nM]
CCc1ncnc(-c2ccc(C(=O)N3CCN4CCC[C@@H]4C3)c(F)c2)c1C#Cc1ccc(N)nc1 [Example E-140] | 198
CCc1ncnc(-c2ccc(C(=O)NCC3(C)COC3)c(C)c2)c1C#Cc1ccc(N)nc1 [Example E-134] | 44.9
Cc1ncnc(-c2ccc(C(=O)N3CC(O)CO3)c(Cl)c2)c1C#Cc1ccc(N)nc1 [Example D-232] | 38
CCc1ncnc(-c2ccc(C(=O)N3CCCN(C)CC3)c(Cl)c2)c1C#Cc1ccc(N)nc1 [Example D-154] | 405
CCc1ncnc(-c2cc(F)c(C(=O)N3CCN(C(C)CO)CC3)c(Cl)c2)c1C#Cc1ccc(N)nc1 (stereo not shown) [Example E-306] | 108
CCc1ncnc(-c2cc(Cl)c(C(=O)N3CCN(CCC#N)CC3)c(Cl)c2)c1C#Cc1ccc(N)nc1 [Example E-206] | 71.8
CCc1ncnc(-c2ccc(C(=O)N3CCC4(CC3)CN(C)C4)c(Cl)c2)c1C#Cc1ccc(N)nc1 [Example E-338] | 634
CCc1ncnc(-c2ccc(C(=O)N3CCN4CCC[C@H]4C3)c(OC(F)(F)F)c2)c1C#Cc1ccc(N)nc1 [Example E-223] | 157
CCc1ncnc(-c2cc(F)c(C(=O)N3CCN(C=O)CC3)c(F)c2)c1C#Cc1ccc(NC)nc1 [Example E-219] | 163
CCc1ncnc(-c2ccc(C(=O)NC3CC(N4CCCCC4)C3)c(F)c2)c1C#Cc1ccc(N)nc1 [Example D-207] | 436
CCc1ncnc(-c2ccc(C(=O)N3CCN(C)CC3)c(Cl)c2)c1C#Cc1ccc(NC)nc1 [Example E-191] | 142
CCc1ncnc(-c2cc(F)c(C(=O)NCCN3CCNCC3)c(F)c2)c1C#Cc1ccc(N)nc1 [Example E-174] | 165
CCc1ncnc(-c2ccc(C(=O)NC3CC(C)(C)NC(C)(C)C3)c(F)c2)c1C#Cc1ccc(N)nc1 [Example D-213] | 272
CCc1ncnc(-c2cc(F)c(C(=O)N3CCN(C4CCOCC4)CC3)c(F)c2)c1C#Cc1ccc(N)nc1 [Example E-6] | 124
CCc1ncnc(-c2cc(F)c(C(=O)N3CCC4(CC3)CC(=O)CO4)c(Cl)c2)c1C#Cc1ccc(N)nc1 [Example E-311] | 69.1
CCc1ncnc(-c2cc(F)c(C(=O)N3CCC(C(C)O)CC3)c(F)c2)c1C#Cc1ccc(NC)nc1 (stereo not shown) [Example E-213] | 465
CCc1ncnc(-c2ccc(C(=O)N3CCCOCC3)c(Cl)c2)c1C#Cc1ccc(N)nc1 [Example E-39] | 65.3
CCc1ncnc(-c2ccc(C(=O)N3CCN(C)C[C@@H]3C)c(F)c2)c1C#Cc1ccc(N)nc1 [Example E-348] | 144
CCc1ncnc(-c2cc(Cl)c(C(=O)N3CC4(CN(C)C4)C3)c(Cl)c2)c1C#Cc1ccc(N)nc1 [Example E-333] | 599
CCc1ncnc(-c2ccc(C(=O)N3CCCO3)c(F)c2)c1C#Cc1ccc(N)nc1 [Example D-218] | 80
CCc1ncnc(-c2cc(Cl)c(C(=O)N3CCN4CCC[C@H]4C3)c(Cl)c2)c1C#Cc1ccc(N)nc1 [Example E-194] | 129
CCc1ncnc(-c2cc(F)c(C(=O)N3CCN(C(C)CO)CC3)c(F)c2)c1C#Cc1ccc(N)nc1 (stereo not shown) [Example E-299] | 160
CCc1ncnc(-c2cc(F)c(C(=O)N3CCN(C4CCCC4O)CC3)c(Cl)c2)c1C#Cc1ccc(N)nc1 (stereo not shown) [Example E-308] | 63.4
CCc1ncnc(-c2ccc(C(=O)N3CCN(C4CCOCC4)CC3)c(F)c2)c1C#Cc1ccc(NC)nc1 [Example E-179] | 276
CCc1ncnc(-c2ccc(C(=O)N(C)CCOC)c(F)c2)c1C#Cc1ccc(N)nc1 [Example D-7] | 103

Structure (SMILES) | IC50 [nM]
CCc1ncnc(-c2ccc(C(=O)N3CCC4(CCN(C)CC4)CC3)c(Cl)c2)c1C#Cc1ccc(N)nc1 [Example E-26] | 498
CCc1ncnc(-c2ccc(C(=O)N3CCN(C(C)(C)C)CC3)c(Cl)c2)c1C#Cc1ccc(N)nc1 [Example D-43] | 436
CCc1ncnc(-c2ccc(C(=O)N3CCC(O)(C(F)(F)F)CC3)c(F)c2)c1C#Cc1ccc(N)nc1 [Example D-123] | 324
CCc1ncnc(-c2ccnc(OC)c2)c1C#Cc1ccc(N)nc1 [Example C-33] | 61
CCc1ncnc(-c2ccc(C(=O)N3CCC(C4CCN(C)CC4)CC3)c(Cl)c2)c1C#Cc1ccc(N)nc1 [Example E-21] | 374
CCc1ncnc(-c2ccc(C(=O)N3CCN(c4ccncc4)CC3)c(F)c2)c1C#Cc1ccc(N)nc1 [Example D-93] | 266
CCc1ncnc(-c2ccc(C(=O)N3CC[C@@H](O)C3)c(F)c2)c1C#Cc1ccc(N)nc1 [Example D-204] | 69
CCc1ncnc(-c2cc(F)c(C(=O)N3CCN(C4CCC4)CC3)c(Cl)c2)c1C#Cc1ccc(N)nc1 [Example E-160] | 115
CCc1ncnc(-c2ccc(C(=O)N3CCCN(C)CC3)c(Cl)c2)c1C#Cc1ccc(N)nc1 [Example E-36] | 405
CCc1ncnc(-c2ccc(C(=O)N3CCN(CC(F)(F)F)CC3)c(F)c2)c1C#Cc1ccc(N)nc1 [Example D-69] | 133
CCc1ncnc(-c2cc(F)c(C(=O)N3CCN(C4CCCC4O)CC3)c(F)c2)c1C#Cc1ccc(N)nc1 (stereo not shown) [Example E-301] | 106
CCc1ncnc(-c2ccc(C(=O)NC)c(F)c2)c1C#Cc1ccc(N)nc1 [Example D-5] | 225
CCc1ncnc(-c2cc(F)c(C(=O)N3CCN(CC(C)O)CC3)c(Cl)c2)c1C#Cc1ccc(N)nc1 (stereo not shown) [Example E-309] | 239
CCc1ncnc(-c2ccc(C(=O)N3CCN(c4ccccc4)CC3)c(F)c2)c1C#Cc1ccc(N)nc1 [Example D-98] | 199
CCc1ncnc(-c2ccc(C(=O)N3CCN(C)C(C)C3)c(F)c2)c1C#Cc1ccc(N)nc1 [Example D-128] | 157
CCc1ncnc(-c2cc(F)c(C(=O)N3CCN(C)C[C@@H]3C)c(Cl)c2)c1C#Cc1ccc(N)nc1 [Example E-341] | 282
CCc1ncnc(-c2ccc(C(=O)N(C)CCCN(C)C)c(F)c2)c1C#Cc1ccc(N)nc1 [Example D-9] | 591
CCc1ncnc(-c2cc(Cl)c(C(=O)N3CCC4(CC3)CN(C)C4)c(Cl)c2)c1C#Cc1ccc(N)nc1 [Example E-335] | 2210
CCc1ncnc(-c2cc(Cl)c(C(=O)N3CCN(CC(C)(C)O)CC3)c(Cl)c2)c1C#Cc1ccc(N)nc1 [Example E-199] | 74.6
CCc1ncnc(-c2ccc(C(=O)N3CCN(C(C)C)CC3)c(C(F)(F)F)c2)c1C#Cc1ccc(N)nc1 [Example E-230] | 279
CCc1ncnc(-c2ccc(C(=O)N3CCC(N(C)C)C3)c(F)c2)c1C#Cc1ccc(N)nc1 [Example D-215] | 227
CCc1ncnc(-c2ccc(C(=O)N3CCN(C(C)C)CC3)c(OC(F)(F)F)c2)c1C#Cc1ccc(N)nc1 [Example E-222] | 530
CCc1ncnc(-c2ccc(C(=O)N3CC(C)NC(C)C3)c(F)c2)c1C#Cc1ccc(N)nc1 [Example D-132] | 184
